# Columns and labels:
# Gallus gallus = species on record: Gallus gallus; experiment: Antiangiogenic activity against fertile leghorn chicken eggs by CAM assay; type: functional, organism-based
# A-431 = experiment: cells; conditions: Homo sapiens
# Description: Cytotoxicity against human A431 cells
# [1] = target: Vascular endothelial growth factor receptor 1 (Homo sapiens, UniProt P17948); experiment: Inhibition of VEGFR1 expressed in human tumor cells
# [2] = target: Platelet-derived growth factor receptor beta (Homo sapiens, UniProt P09619); experiment: Inhibition of PDGFRbeta expressed in human tumor cells
# [3] = target: Vascular endothelial growth factor receptor 2 (Homo sapiens, UniProt P35968)
# Description: Inhibition of VEGFR2 expressed in human tumor cells
# [4] = target: Epidermal growth factor receptor (Homo sapiens, UniProt P00533); experiment: Inhibition of EGFR expressed in human tumor cells
# Epidermal growth factor receptor, sequence (P00533 whole entry): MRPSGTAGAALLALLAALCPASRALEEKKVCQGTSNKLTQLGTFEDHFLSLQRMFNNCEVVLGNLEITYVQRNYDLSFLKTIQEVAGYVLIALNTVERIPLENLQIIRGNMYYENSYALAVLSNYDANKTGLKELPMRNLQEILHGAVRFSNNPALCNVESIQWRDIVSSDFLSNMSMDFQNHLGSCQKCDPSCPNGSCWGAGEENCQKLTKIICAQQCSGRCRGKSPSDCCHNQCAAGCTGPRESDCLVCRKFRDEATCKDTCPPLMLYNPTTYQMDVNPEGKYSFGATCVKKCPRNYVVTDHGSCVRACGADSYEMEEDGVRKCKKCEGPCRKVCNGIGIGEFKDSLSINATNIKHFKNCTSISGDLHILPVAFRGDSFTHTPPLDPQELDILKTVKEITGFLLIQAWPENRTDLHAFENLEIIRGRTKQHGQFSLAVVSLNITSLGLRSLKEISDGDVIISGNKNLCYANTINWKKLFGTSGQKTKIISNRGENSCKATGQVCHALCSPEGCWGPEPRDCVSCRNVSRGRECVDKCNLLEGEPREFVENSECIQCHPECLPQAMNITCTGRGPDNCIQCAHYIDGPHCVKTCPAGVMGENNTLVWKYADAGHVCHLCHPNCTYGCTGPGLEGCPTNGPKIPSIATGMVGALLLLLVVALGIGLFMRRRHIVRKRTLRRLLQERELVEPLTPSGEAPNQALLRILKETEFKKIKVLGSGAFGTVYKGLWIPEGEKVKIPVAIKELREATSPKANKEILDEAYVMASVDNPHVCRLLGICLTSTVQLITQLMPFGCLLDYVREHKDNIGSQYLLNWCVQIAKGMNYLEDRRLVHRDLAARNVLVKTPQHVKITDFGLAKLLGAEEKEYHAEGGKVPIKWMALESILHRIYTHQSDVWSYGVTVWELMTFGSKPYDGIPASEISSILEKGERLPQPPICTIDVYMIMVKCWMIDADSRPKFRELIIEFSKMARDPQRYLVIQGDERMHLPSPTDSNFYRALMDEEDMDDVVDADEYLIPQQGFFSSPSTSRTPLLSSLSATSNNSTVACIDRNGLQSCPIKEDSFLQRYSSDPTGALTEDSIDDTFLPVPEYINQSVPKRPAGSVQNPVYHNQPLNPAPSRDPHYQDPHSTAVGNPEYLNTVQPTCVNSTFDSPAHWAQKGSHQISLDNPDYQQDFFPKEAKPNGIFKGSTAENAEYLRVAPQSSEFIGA
# Vascular endothelial growth factor receptor 1, sequence (P17948 whole entry): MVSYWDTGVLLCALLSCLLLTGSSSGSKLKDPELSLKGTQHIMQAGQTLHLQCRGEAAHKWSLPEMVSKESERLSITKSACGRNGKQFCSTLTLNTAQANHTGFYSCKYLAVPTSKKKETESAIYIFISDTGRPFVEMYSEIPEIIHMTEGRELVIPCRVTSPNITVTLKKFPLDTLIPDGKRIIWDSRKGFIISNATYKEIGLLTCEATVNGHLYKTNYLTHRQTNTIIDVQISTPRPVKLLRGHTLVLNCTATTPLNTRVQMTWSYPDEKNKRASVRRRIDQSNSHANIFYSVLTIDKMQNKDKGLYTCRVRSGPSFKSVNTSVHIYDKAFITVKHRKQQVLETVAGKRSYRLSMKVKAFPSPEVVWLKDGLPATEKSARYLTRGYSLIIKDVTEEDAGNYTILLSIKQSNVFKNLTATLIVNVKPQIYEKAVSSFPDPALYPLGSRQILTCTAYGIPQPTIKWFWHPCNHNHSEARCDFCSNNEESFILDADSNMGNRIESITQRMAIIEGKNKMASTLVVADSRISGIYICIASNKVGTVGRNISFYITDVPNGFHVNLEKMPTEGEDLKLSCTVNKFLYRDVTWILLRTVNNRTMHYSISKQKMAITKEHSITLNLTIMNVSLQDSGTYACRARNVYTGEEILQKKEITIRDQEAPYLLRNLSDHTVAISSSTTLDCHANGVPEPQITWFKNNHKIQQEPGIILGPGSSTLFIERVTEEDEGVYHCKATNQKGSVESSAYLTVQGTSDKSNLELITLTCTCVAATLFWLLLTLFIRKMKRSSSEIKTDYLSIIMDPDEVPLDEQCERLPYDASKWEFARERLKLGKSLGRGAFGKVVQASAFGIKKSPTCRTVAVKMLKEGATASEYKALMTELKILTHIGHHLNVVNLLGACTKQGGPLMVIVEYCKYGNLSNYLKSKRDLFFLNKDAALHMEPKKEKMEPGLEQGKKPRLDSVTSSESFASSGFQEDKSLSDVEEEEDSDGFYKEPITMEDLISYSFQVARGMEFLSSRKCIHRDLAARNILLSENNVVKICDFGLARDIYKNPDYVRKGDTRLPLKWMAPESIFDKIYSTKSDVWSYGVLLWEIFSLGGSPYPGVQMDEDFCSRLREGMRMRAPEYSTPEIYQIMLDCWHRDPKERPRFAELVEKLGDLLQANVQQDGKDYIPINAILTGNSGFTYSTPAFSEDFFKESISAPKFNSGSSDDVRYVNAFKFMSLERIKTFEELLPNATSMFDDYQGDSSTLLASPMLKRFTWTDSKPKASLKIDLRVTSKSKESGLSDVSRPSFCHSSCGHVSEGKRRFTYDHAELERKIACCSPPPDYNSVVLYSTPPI
# Vascular endothelial growth factor receptor 2, sequence (P35968 whole entry): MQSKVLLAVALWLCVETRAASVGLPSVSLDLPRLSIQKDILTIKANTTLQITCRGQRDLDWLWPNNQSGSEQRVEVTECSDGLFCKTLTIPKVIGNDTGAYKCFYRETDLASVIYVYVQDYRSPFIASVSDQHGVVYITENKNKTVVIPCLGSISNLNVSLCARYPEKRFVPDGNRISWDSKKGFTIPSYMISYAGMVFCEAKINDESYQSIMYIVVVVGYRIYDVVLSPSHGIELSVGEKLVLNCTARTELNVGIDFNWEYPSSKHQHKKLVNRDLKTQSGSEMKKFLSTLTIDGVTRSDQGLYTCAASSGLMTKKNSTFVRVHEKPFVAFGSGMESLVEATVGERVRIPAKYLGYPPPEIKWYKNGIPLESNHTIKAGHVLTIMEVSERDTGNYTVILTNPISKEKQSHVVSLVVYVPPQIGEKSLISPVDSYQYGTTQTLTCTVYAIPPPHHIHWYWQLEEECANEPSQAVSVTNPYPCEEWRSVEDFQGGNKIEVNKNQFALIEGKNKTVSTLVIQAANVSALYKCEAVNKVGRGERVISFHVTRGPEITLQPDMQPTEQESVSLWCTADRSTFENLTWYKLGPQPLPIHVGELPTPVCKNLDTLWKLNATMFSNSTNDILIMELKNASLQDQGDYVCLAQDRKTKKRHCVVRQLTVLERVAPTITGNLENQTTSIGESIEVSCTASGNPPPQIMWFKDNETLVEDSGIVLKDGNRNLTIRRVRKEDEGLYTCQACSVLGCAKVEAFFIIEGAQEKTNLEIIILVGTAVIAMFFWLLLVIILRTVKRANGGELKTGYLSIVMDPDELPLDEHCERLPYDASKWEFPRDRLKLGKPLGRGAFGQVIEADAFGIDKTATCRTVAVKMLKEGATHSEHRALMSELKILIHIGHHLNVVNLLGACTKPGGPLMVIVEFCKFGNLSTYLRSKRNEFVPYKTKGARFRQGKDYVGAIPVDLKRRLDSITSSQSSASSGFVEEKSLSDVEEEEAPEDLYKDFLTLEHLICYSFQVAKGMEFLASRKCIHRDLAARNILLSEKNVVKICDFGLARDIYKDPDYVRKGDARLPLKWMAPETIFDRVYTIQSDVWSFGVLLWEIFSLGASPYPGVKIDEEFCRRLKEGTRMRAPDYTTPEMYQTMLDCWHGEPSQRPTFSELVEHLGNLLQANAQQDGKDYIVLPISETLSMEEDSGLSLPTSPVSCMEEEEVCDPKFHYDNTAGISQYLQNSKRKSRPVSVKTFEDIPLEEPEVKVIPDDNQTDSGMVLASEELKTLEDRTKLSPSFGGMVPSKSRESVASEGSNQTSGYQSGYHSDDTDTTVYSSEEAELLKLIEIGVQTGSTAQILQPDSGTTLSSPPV
# Platelet-derived growth factor receptor beta, sequence (P09619 whole entry): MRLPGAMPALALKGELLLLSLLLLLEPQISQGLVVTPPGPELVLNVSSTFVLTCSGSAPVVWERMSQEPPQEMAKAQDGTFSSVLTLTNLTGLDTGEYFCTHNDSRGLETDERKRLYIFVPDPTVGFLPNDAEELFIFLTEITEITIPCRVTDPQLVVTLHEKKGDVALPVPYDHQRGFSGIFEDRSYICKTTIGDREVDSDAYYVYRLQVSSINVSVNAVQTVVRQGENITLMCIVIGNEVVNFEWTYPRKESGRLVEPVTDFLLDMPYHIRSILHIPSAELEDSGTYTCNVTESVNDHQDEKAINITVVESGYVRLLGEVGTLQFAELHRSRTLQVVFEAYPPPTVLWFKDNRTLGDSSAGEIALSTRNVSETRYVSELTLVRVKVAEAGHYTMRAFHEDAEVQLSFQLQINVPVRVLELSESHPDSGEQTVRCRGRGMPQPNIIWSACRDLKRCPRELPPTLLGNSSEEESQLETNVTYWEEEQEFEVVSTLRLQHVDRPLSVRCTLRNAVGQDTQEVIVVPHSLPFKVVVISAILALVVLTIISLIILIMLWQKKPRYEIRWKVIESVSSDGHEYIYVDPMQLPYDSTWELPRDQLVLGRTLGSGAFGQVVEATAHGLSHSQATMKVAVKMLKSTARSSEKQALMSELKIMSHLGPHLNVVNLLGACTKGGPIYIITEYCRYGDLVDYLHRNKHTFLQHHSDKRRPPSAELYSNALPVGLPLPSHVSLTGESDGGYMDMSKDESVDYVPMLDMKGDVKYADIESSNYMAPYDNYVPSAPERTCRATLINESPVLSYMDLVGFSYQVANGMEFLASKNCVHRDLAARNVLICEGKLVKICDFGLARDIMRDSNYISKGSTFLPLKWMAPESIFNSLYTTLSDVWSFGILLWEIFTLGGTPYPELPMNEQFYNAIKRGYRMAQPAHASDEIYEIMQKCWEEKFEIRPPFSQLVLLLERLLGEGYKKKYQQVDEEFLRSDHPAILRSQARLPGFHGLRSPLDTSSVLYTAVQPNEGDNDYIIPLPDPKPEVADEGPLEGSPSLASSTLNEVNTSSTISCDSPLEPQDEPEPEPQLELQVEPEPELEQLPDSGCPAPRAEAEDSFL
Compound,IC50 (Gallus gallus),IC50 (A-431),IC50 [1],IC50 [2],IC50 [3],IC50 [4]
Nc1nc(Nc2cccc(Br)c2)c2cc(Cc3cccc4ccccc34)[nH]c2n1,0.053 µM,–,–,–,–,–
Nc1nc(Nc2ccc(Cl)cc2F)c2cc(CCc3ccccc3)[nH]c2n1,–,–,> 200 µM,> 500 µM,> 200 µM,1.32 µM
Nc1nc(Nc2cccc(Br)c2)c2cc(CCc3ccccc3)[nH]c2n1,19.5 µM,–,45.1 µM,11.8 µM,> 50 µM,0.3 µM
Nc1nc(Nc2ccc3[nH]ccc3c2)c2cc(CCc3ccccc3)[nH]c2n1,–,–,> 200 µM,77.4 µM,24.9 µM,> 200 µM
Nc1nc(Nc2cccc(Br)c2)c2cc(Cc3ccccc3)[nH]c2n1,–,–,–,> 50 µM,–,–
Nc1nc(Nc2cccc(Br)c2)c2cc(Cc3ccccc3Cl)[nH]c2n1,1.7 µM,–,–,> 50 µM,–,–
Nc1nc(Nc2cccc(Br)c2)c2cc(Cc3ccc4ccccc4c3)[nH]c2n1,–,–,–,> 50 µM,–,–
Nc1nc(Nc2ccc(F)c(Cl)c2)c2cc(CCc3ccccc3)[nH]c2n1,5.9 µM,6.8 µM,> 200 µM,> 500 µM,132 µM,22.8 µM
Nc1nc(Nc2ccc(Cl)cc2)c2cc(CCc3ccccc3)[nH]c2n1,3.3 µM,1.6 µM,> 200 µM,> 500 µM,> 200 µM,3.18 µM
C#Cc1cccc(Nc2nc(N)nc3[nH]c(CCc4ccccc4)cc23)c1,–,–,> 200 µM,100 µM,> 200 µM,> 200 µM

# Next, values leading:
IC50 (Gallus gallus),IC50 (A-431),IC50 [1],IC50 [2],IC50 [3],IC50 [4],Compound
10.1 µM,13.2 µM,32.7 µM,> 50 µM,42.3 µM,3.4 µM,Nc1nc(Nc2cccc(Br)c2)c2cc(CCc3ccccc3Cl)[nH]c2n1
–,–,> 200 µM,90 µM,> 200 µM,122 µM,Nc1nc(Nc2ccc(F)c(C(F)(F)F)c2)c2cc(CCc3ccccc3)[nH]c2n1
–,3.4 µM,> 200 µM,> 500 µM,198 µM,> 200 µM,Nc1nc(Nc2ccc(F)c(Br)c2)c2cc(CCc3ccccc3)[nH]c2n1
–,–,> 200 µM,> 500 µM,> 200 µM,> 200 µM,Nc1nc(Nc2cccc(C(F)(F)F)c2)c2cc(CCc3ccccc3)[nH]c2n1
15.2 µM,8.2 µM,11.2 µM,11 µM,–,4.8 µM,Nc1nc(Nc2cccc(Br)c2)c2cc(CCc3cccc4ccccc34)[nH]c2n1
18.9 µM,> 50 µM,7.8 µM,13.7 µM,16.8 µM,4.7 µM,Nc1nc(Nc2cccc(Br)c2)c2cc(CCc3ccc4ccccc4c3)[nH]c2n1
21.1 µM,> 50 µM,31.8 µM,> 50 µM,> 50 µM,2.2 µM,COc1ccc(CCc2cc3c(Nc4cccc(Br)c4)nc(N)nc3[nH]2)cc1
